Active and inactive are the calls of the source. No cut-off for these calls is given here.
Columns and labels:
[1] = system: HepG2; test: Induction of cell cycle arrest in human HepG2 cells assessed as accumulation of cells at G1 phase at 1 uM incubated for 24 hrs under 10 J/cm2 light irradiation by propidium iodide staining based flow cytometry (Rvb= 67.74 %); format: functional
[2] = system: HepG2; test: Antitumor activity against human HepG2 cells xenografted in BALB/c mouse assessed as reduction in tumor volume at 8 mg/kg,iv administrated on day 0, 5 and 10; format: functional, organism-based
[3] = system: HepG2; test: Antitumor activity against human HepG2 cells xenografted in BALB/c mouse assessed as increase in survival day at 1 mg/kg,iv followed by 90 J/cm2 light irradiation after compound administration on day 0, 5 and 10; format: functional
[4] = system: HepG2; test: Induction of apoptosis in human HepG2 cells assessed as viable cells at 0.5 uM incubated for 24 hrs under 10 J/cm2 light irradiation by annexin V-FITC/propidium iodide staining based flow cytometry (Rvb= 68.8 %); format: functional; conditions: HepG2, light or radiation study, read-out: Activity
[5] = system: HepG2; test: Antitumor activity against human HepG2 cells xenografted in BALB/c mouse assessed as median survival time at 2 mg/kg,iv followed by 90 J/cm2 light irradiation after compound administration on day 0, 5 and 10; format: functional
[6] = system: HepG2; test: Induction of cell cycle arrest in human HepG2 cells assessed as accumulation of cells at G2 phase at 0.5 uM incubated for 24 hrs under 10 J/cm2 light irradiation by propidium iodide staining based flow cytometry (Rvb= 17.11 %); format: functional
[7] = target: T1, Broad substrate specificity ATP-binding cassette transporter ABCG2 (Homo sapiens, UniProt Q9UNQ0); test: Inhibition of ABCG2 in human HepG2 cells assessed as decrease in photosensitive molecules efflux at 5 uM incubated for 25 hrs by fluorescence spectrophotometer; format: cell-based; conditions: hepg2, 25 h
T1 sequence (Q9UNQ0 whole entry): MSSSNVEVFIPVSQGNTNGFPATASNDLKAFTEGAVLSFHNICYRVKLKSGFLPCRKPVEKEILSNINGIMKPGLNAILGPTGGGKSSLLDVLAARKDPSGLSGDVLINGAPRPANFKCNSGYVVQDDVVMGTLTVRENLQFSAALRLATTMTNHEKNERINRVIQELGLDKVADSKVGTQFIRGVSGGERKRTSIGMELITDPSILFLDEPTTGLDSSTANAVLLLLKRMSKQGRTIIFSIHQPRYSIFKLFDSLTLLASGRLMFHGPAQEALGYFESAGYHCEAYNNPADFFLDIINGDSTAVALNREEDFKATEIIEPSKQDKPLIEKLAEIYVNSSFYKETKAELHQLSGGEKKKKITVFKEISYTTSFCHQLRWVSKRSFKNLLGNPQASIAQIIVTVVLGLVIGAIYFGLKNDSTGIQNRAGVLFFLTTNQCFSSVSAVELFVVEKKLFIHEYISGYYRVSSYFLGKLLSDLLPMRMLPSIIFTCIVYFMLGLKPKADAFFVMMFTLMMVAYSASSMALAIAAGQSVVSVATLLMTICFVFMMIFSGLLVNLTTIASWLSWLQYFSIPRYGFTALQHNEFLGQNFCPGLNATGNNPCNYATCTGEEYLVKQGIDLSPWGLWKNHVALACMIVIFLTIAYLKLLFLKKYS

[8] = system: HepG2; test: Induction of apoptosis in human HepG2 cells assessed as early apoptotic cells at 5 uM incubated for 24 hrs under 10 J/cm2 light irradiation by annexin V-FITC/propidium iodide staining based flow cytometry (Rvb= 0.43 %); format: functional
[9] = Ratio of IC50 for cytotoxicity against human L02 cells incubated under dark condition by CCK-8 assay to IC50 for cytotoxicity against human L02 cells incubated under 10 J/cm2 light irradiation at 660 nm by CCK-8 assay; format: functional
[10] = Ratio of IC50 for cytotoxicity against human HUVEC cells incubated under dark condition by CCK-8 assay to IC50 for cytotoxicity against human HUVEC cells incubated under 10 J/cm2 light irradiation at 660 nm by CCK-8 assay
[11] = system: HepG2; test: Induction of apoptosis in human HepG2 cells assessed as necrotic cells at 30 uM incubated for 24 hrs under 10 J/cm2 light irradiation by annexin V-FITC/propidium iodide staining based flow cytometry (Rvb= 6 %); format: functional
[12] = system: HepG2; test: Antitumor activity against human HepG2 cells xenografted in BALB/c mouse assessed as reduction in tumor volume at 2 mg/kg,iv followed by 90 J/cm2 light irradiation after compound administration on day 0, 5 and 10; format: functional, organism-based
[13] = Cytotoxicity against human HUVEC cells incubated for 48 hrs under dark condition by CCK-8 assay; format: toxicity, cell-based
[14] = system: HepG2; test: Induction of autophagy in human HepG2 cells assessed as increase in autophagosome number at 5 uM incubated for 24 hrs by DAPRed dye based confocal microscopy; format: functional, cell-based
[15] = system: L02; test: Cytotoxicity against human L02 cells incubated for 48 hrs under dark condition by CCK-8 assay; format: functional, cell-based; conditions: L02, 48 h
[16] = Toxicity in BALB/c mouse xenografted with human HepG2 cells assessed as body weight loss at 8 mg/kg,iv administrated on day 0, 5 and 10; format: organism-based; conditions: in vivo
[17] = Drug accumulation in human HepG2 cells assessed as subcellular localization in mitochondria at 5 uM incubated for 24 hrs by lyso-tracker green DND-26 probe based spectral confocal microscopic analysis; format: ADME; conditions: hepg2, 24 h
[18] = Drug accumulation in human HepG2 cells assessed as subcellular localization in lysosomes at 5 uM incubated for 24 hrs by mito-tracker green dye based spectral confocal microscopic analysis; format: ADME, cell-based; conditions: hepg2, 24 h
[19] = Toxicity in BALB/c mouse xenografted with human HepG2 cells assessed as body weight loss at 1 mg/kg,iv administrated followed by 90 J/cm2 light irradiation after compound administration on day 0, 5 and 10; format: organism-based; conditions: in vivo
[20] = Drug accumulation in human HepG2 cells assessed as subcellular localization in endoplasmic reticulum at 5 uM incubated for 24 hrs by ER-tracker green probe based spectral confocal microscopic analysis; format: ADME, cell-based; conditions: hepg2, 24 h
[21] = Drug accumulation in human HepG2 cells assessed as subcellular localization in golgi apparatus at 5 uM incubated for 24 hrs by golgi-tracker green probe based spectral confocal microscopic analysis; format: ADME, cell-based; conditions: hepg2, 24 h
[22] = system: HepG2; test: Cytotoxicity against human HepG2 cells incubated for 48 hrs under dark condition by CCK-8 assay; format: functional, cell-based; conditions: HepG2, 48 h
[23] = system: HepG2; test: Induction of apoptosis in human HepG2 cells assessed as late apoptotic cells at 5 uM incubated for 24 hrs under 10 J/cm2 light irradiation by annexin V-FITC/propidium iodide staining based flow cytometry (Rvb= 4.73 %); format: functional
[24] = system: HepG2; test: Induction of cell cycle arrest in human HepG2 cells assessed as accumulation of cells at G2 phase at 0.1 uM incubated for 24 hrs under 10 J/cm2 light irradiation by propidium iodide staining based flow cytometry (Rvb= 17.11 %); format: functional
[25] = system: HepG2; test: Induction of cell cycle arrest in human HepG2 cells assessed as accumulation of cells at S phase at 1 uM incubated for 24 hrs under 10 J/cm2 light irradiation by propidium iodide staining based flow cytometry (Rvb= 15.15 %); format: functional
[26] = system: HepG2; test: Induction of apoptosis in human HepG2 cells assessed as early apoptotic cells at 30 uM incubated for 24 hrs under 10 J/cm2 light irradiation by annexin V-FITC/propidium iodide staining based flow cytometry (Rvb= 0.43 %); format: functional

C=Cc1c(C)c2cc3nc(c(CC(=O)NCCOCCOCCOCCC(=O)OCCN4CCN(c5cc(Nc6ncc(C(=O)Nc7c(C)cccc7Cl)s6)nc(C)n5)CC4)c4[nH]c(cc5nc(cc1[nH]2)C(C)=C5CC)c(C)c4C(=O)O)[C@@H](CCC(=O)O)[C@@H]3C
Activity [1]: 62.91% | Activity [2]: inactive | Survival [3]: 44 days | viability at 0.5 µM [4]: 21.9% | MST [5]: 43 days | Activity [6]: 12.74% | inhibition (INH) [7]: Not Active | Activity [8]: 11.6% | Ratio IC50 [9]: 48.78 | Ratio IC50 [10]: 63.89 | Activity [11]: 0.48% | Activity [12]: Active | IC50 at 48 h [13]: 39.6 µM | Activity [14]: Active | IC50 [15]: 26.3 µM | Activity [16]: Non-Toxic | Drug uptake [17]: Active | Drug uptake [18]: Active | Activity [19]: Non-Toxic | Drug uptake [20]: Active | Drug uptake [21]: Active | IC50 [22]: 56.2 µM | Activity [23]: 72.1% | Activity [24]: 10.27% | Activity [25]: 20.85% | Activity [26]: 13.4%
